Key:
RENCA tumour cells = assay: Antitumor activity, RENCA model; type: in vivo, mouse; details: D18 and D22, compared to untreated and vehicle groups, FIG. 3B
Protocol: Treatment schedule—The start of first dosing was considered as D0. On D0, non-engrafted mice were randomized according to their individual body weight into groups of 9 mice using Vivo manager® software (Biosystemes, Couternon, France). On D0, the mice received vehicle (culture medium) or bacterial strain (2×10^8 in 200 μL, PO). On D14, all mice were engrafted with RENCA tumour cells injected SC into the ventral surface of the lower flank as described below. Treatment with anti-CTLA-4 (10 mg/kg, IP) and anti-PDL1 (clone 10F.9G2, 10 mg/kg) was initiated when tumours reached a volume of 50-70 mm3.
Orthotopic induction of RENCA tumor cells in animals by SC injection—On D14, one million (1×10^6) RENCA tumor cells in 50 ΞL RPMI 1640 medium were transplanted via SC injection into the ventral surface of the lower flank of mice.
Euthanasia - Each mouse was euthanized when it reached a humane endpoint as described in section below, or after a maximum of 6 weeks post start of dosing.
Evaluation of tumour burden at euthanasia—At the time of termination, tumours were collected and their volume evaluated.
Clinical monitoring—The length and width of the tumour was measured twice a week with callipers and the volume of the tumour was estimated by this formula [52]: […]

immature dendritic cells = assay: Cytokine production in immature dendritic cells; type: cell-based; details: compared to the negative control, MRX518 10^7/ml, LPS 100 ng/ml, FIG. 4
Protocol: A monocyte population was isolated from peripheral blood mononuclear cells (PBMCs). The monocyte cells were subsequently differentiated into immature dendritic cells. The immature dendritic cells were plated out at 200,000 cells/well and incubated with MRX518 at a final concentration of 10^7/ml, with the optional addition of LPS at a final concentration of 100 ng/ml. The negative control involved incubating the cells with RPMI media alone and positive controls incubated the cells with LPS at a final concentration of 100ng/ml. The cytokine content of the cells was then analysed.

Compound | tumour size (RENCA tumour cells) | level of IL-6 (immature dendritic cells) | level of TNF-α (immature dendritic cells)
CC(=O)O[C@H]1C(=O)[C@@]2(C)[C@H]([C@H](OC(=O)c3ccccc3)[C@]3(O)C[C@H](OC(=O)[C@H](O)[C@@H](NC(=O)c4ccccc4)c4ccccc4)C(C)=C1C3(C)C)[C@]1(OC(C)=O)CO[C@@H]1C[C@@H]2O [Paclitaxel] | (almost) complete reduction |  | 
lipopolysaccharide [LPS] |  | increase | increase

From US20240016861A1, “COMBINATION THERAPY FOR TREATING OR PREVENTING CANCER” (4D Pharma Research Limited, priority 2018, published 2024)
